From patent US20250170156A1, “TOLL-LIKE RECEPTOR LIGANDS” (INIMMUNE CORPORATION, priority 2018, published 2025) come the findings set out here.

pEC50: −log10 of the molar value.

The subject of data set [1] is primary hPBMCs. The data set can be described thus: Induction of RANTES from primary hPBMCs (ELISA). The settings on record: Homo sapiens. In general terms: An ELISA detects its analyte on a solid surface through an enzyme-linked reagent.
For data set [2], the system named is primary hPBMCs. The data set can be described thus: Induction of MIP-1β from primary hPBMCs (ELISA). As to conditions: Homo sapiens.
Data set [3] deals with hMM6 cells. Description: Induction of MIP-1β cytokine from hMM6 cells (ELISA). The data set is classed as cell-based. The settings on record: Homo sapiens, 18 hours. The protocol: Induction of […] cytokine from hMM6 cells. The compounds were next tested in the established MM6 potency assay measuring MIP-1β cytokine production as an output measure of compound potency. Human monocytic cell line, Mono-Mac-6 (hMM6) was obtained from DSMZ (Brunswick, Germany). […] Treatments started at a 100 µM concentration proceeded with a 16-point, 5-fold dilution series. Supernatants were harvested and analyzed for production of MIP-1β via ELISA (R&D systems, catalog #DY271).

Data set [4] is described as follows: Stability of aqueous formulations by reverse-phase-HPLC. In kind it is physicochemical. The protocol: Formulation. The salted compound was accurately weighed into depyrogenated glass vials, and the required volume of aqueous vehicle added to attain the desired concentration. Vials were placed in a sonication bath (sonication bath temperature≤45° C.) to assist solubility and reduce particle size to achieve sterile filtration without significant loss of compound. Once the solution appeared homogeneous, the particle size was periodically monitored by dynamic light scattering until the solution turned clear and the particle size was <200 mn, or the particle size no longer reduced with continued sonication. The formulation was filtered through a 0.22p PVDF membrane filter into a depyrogenated glass vial and the resulting solution quantitated by RP-HPLC.
Aqueous formulations of compounds 1, 2, 3, 4, 5 and 6 were aliquoted into small depyrogenated vials for stability evaluation at temperatures of 2°-8° C., 25° C., and 40° C. This mirrors ICH stability temperature guidelines, but humidity was not controlled. A vial was pulled for each time point/temperature and analyzed by reverse-phase-HPLC (FIGS. 9-14) according to the following schedule starting from 2 weeks to up to 12 months.

The target in data set [5] is T1, hTLR4 (Homo sapiens, UniProt O00206+Q9Y6Y9).
T1 construct: expressed in transfected cells; host or cells: HEK cells expressing hTLR4 and an NF-κB driven SEAP reporter
The data set can be described thus: HEK hTLR4 NF-κB driven SEAP reporter assay (hTLR4 activation). In kind it is cell-based. As to conditions: 18 hours. The protocol:
hTLR4 activation. HEK hTLR4-expressing cells were treated with 100 μM concentration of test compound followed by a 5-fold dilution series. HEK hTLR4-expressing cells also contained an NF-κB driven SEAP reporter and were stimulated with the indicated concentration (FIG. 1A-1C) of the test compound for 18 hours followed by assessment of the cellular supernatant for SEAP by a Quantikine SEAP assay (InvivoGen). The SEAP assay was used to look at secretion of the NF-κB driven alkaline-phosphatase reporter gene in response to TLR4 activation by the compounds and results are interpreted both in terms of potency of the compounds to induce SEAP activation (i.e. potency where a lower EC50 indicates higher potency) and efficacy for receptor activation (i.e. maximal SEAP induction).

Data set [6] deals with mRAW264.7 cells. The data set can be described thus: Induction of MIP-1β cytokine from mRAW264.7 cells (ELISA). The data set is classed as cell-based. The settings on record: Mus musculus, 18 hours, read-out: mRaw MIP-1β EC50. As to the method:
Induction of MIP-1β cytokine from mRAW264.7 cells. […] Treatments started at 20 μM concentration with a 5-fold serial dilution until 3.2768E-09 μM. Supernatants were harvested and analyzed for production of MIP-1β via ELISA (R& D Systems-cat #DY451).

Data set [7] relates to influenza virus antigen A/Victoria/210/2009-H3N2. The data set can be described thus: Vaccine adjuvant study, murine influenza virus vaccination model. In kind it is in vivo, BALB/c mice. As to conditions: intramuscular, 0.1, 0.01 or 0.001 μg with 0.2 μg antigen, 14 days after single immunization, 2% glycine. The protocol: Vaccine adjuvant study. Compounds 2, 4, 5 and 7 were evaluated as vaccine adjuvant in a murine influenza virus vaccination model. 7-9 week old BALB/c mice (10 mice per group) were injected intramuscularly in a hind limb with the influenza virus antigen A/Victoria/210/2009-H3N2 (0.2 μg/mouse) with or without 0.1, 0.01 or 0.001 μg of compound 2, 4, 5 or 7 (formulated in 2% glycine). Fourteen days after a single immunization, animals were bled via the submandibular vein and serum was collected to assay for A/Victoria specific antibodies by ELISA assay (FIG. 7).

The mark [8] stands for this setting: read-out: hPBMCs EC50 RANTES, Table 3a, Average of Donors 10, 5, 2.
Where [9] appears, read: read-out: hPBMCs EC50 RANTES, Table 3a, Donor 2.
Where [10] appears, read: read-out: hPBMCs EC50 RANTES, Table 3a, Donor 5.
Where [11] appears, read: read-out: hPBMCs EC50 RANTES, Table 3a, Donor 10.
Setting [12] is: read-out: hPBMCs EC50 RANTES, Table 4b, Average of Donors 22, 5.
The mark [13] stands for this setting: read-out: hPBMCs EC50 RANTES, Table 4b, Donor 5.
Where [14] appears, read: read-out: hPBMCs EC50 RANTES, Table 4b, Donor 22.
[15] abbreviates: read-out: hPBMCs EC50 MIP-1β, Table 3a, Average of Donors 10, 5, 2.
Setting [16] is: read-out: hPBMCs EC50 MIP-1β, Table 3a, Donor 2.
Setting [17] is: read-out: hPBMCs EC50 MIP-1β, Table 3a, Donor 5.
Where [18] appears, read: read-out: hPBMCs EC50 MIP-1β, Table 3a, Donor 10.
[19] abbreviates: read-out: hPBMCs EC50 MIP-1β, Table 4b, Average of Donors 22, 5.
The mark [20] stands for this setting: read-out: hPBMCs EC50 MIP-1β, Table 4b, Donor 5.
The mark [21] stands for this setting: read-out: hPBMCs EC50 MIP-1β, Table 4b, Donor 22.

T1 sequence (O00206 24-839): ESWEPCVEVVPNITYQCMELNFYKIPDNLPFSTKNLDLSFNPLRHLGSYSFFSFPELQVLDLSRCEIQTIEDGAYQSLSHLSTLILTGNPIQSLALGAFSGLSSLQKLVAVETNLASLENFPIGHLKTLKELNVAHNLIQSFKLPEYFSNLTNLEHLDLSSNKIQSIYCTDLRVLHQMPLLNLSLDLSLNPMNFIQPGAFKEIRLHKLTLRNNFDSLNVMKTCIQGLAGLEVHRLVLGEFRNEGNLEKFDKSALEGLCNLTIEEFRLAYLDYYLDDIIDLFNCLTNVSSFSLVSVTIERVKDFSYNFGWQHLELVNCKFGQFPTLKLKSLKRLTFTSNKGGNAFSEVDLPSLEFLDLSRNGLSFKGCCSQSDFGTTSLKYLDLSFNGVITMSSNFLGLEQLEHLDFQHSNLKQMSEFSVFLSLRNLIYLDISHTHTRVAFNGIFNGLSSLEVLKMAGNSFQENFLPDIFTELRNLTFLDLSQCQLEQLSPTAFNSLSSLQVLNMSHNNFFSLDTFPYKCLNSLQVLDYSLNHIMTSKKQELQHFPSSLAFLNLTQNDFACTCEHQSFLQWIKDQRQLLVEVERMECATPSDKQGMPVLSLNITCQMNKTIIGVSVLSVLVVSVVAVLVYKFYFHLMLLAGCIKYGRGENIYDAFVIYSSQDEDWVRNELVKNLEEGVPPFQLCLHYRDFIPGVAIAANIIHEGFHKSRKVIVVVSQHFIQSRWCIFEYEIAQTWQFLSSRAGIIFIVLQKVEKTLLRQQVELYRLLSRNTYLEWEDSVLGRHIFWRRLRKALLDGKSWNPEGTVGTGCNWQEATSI
T1 sequence (Q9Y6Y9 17-160 limits assumed): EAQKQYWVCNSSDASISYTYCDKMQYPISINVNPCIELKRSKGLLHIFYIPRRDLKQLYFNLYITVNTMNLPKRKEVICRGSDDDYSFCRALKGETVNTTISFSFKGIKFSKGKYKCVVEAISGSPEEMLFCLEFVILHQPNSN

In general, pEC50 refers to −log10 of the EC50, conventionally taken in molar units. With `CCCCCCCCCCC[C@H](CC(=O)NCCO[C@@H]1O[C@H](CO)[C@@H](OP(=O)(O)O)[C@@H](NC(=O)C[C@@H](CCCCCCCCCCC)OC(=O)CCCCCCCCC)[C@H]1NC(=O)C[C@@H](CCCCCCCCCCC)OC(=O)CCCCCCCCC)OC(=O)CCCCCCCCC` [Compound 1, 2-[(R)-3-decanoyloxytetradecanoylamino]ethyl 2,3-di-[(R)-3-decanoyloxytetradecanoylamino]-2,3-dideoxy-4-O-phosphono-β-D-allopyranoside], the pEC50 in data set [1] (setting [8]) was 10.69; in data set [1] (setting [9]) it was 10.92; in data set [1] (setting [10]), 10.60; in data set [1] (setting [11]) it was 10.62; in data set [1] (setting [12]), 9.87; in data set [1] (setting [13]) it was 10.05. Also, the pEC50 in data set [1] (setting [14]) was 9.75; in data set [2] (setting [15]) it was 10.67; in data set [2] (setting [16]), 10.70; in data set [2] (setting [17]), 10.62; in data set [2] (setting [18]) it was 10.69; in data set [2] (setting [19]), 9.74. Also, the pEC50 was 10.12 in data set [2] (setting [20]); 9.55 in data set [2] (setting [21]); 9.60 in data set [3]; 7.86 in data set [5] (Table 1a); 7.71 in data set [5] (Table 1b); 10.24 in data set [6]. Further, the “time with no degradation” value in data set [4] (40° C., formulated in 2.5% glycine (FIGS. 9, 12)) is given as 6 weeks.
Regarding `CCCCCCCCCCC[C@H](CC(=O)NCCO[C@@H]1OC(CO)[C@@H](OS(=O)(=O)O)[C@H](NC(=O)C[C@@H](CCCCCCCCCCC)OC(=O)CCCCCCCCC)C1NC(=O)C[C@@H](CCCCCCCCCCC)OC(=O)CCCCCCCCC)OC(=O)CCCCCCCCC` (stereo partly drawn) [Compound 2, 2-[(R)-3-decanoyloxytetradecanoylamino]ethyl 2,3-di-[(R)-3-decanoyloxytetradecanoylamino]-2,3-dideoxy-4-O-sulfoxy-β-D-allopyranoside], the pEC50 in data set [1] (setting [8]) was 9.61; in data set [1] (setting [9]), 9.42; in data set [1] (setting [10]), 9.55; in data set [1] (setting [11]), 10.19; in data set [1] (setting [12]), 9.37; in data set [1] (setting [13]), 9.62. For the same compound, the negative-log EC50 (pEC50) is 9.22 in data set [1] (setting [14]); 10.02 in data set [2] (setting [15]); 10.12 in data set [2] (setting [16]); 9.78 in data set [2] (setting [17]); 10.32 in data set [2] (setting [18]); 9.34 in data set [2] (setting [19]). The pEC50 in data set [2] (setting [20]) was 9.92; in data set [2] (setting [21]), 9.10; in data set [3], 8.23; in data set [5] (Table 1a) it was 7.19; in data set [5] (Table 1b), 7.39; in data set [6], 10.75. In addition, the “adjuvant effect on flu-specific IgG2a antibody titers compared to antigen alone” value in data set [7] was “dose dependent adjuvant effect”. Besides, the “time with no degradation” value in data set [4] (25° C., formulated in 2% glycine (FIG. 10A)) is reported as not below 12 months. The degradation entry in data set [4] (after 12 months at 40° C., formulated in 2% glycerol (FIG. 10B)) is on record as “less than 10%”.
Consider `CCCCCCCCCCC[C@H](CC(=O)N[C@H]1[C@H](OC[C@H](NC(=O)C[C@@H](CCCCCCCCCCC)OC(=O)CCCCCCCCC)C(=O)OC)O[C@H](CO)[C@@H](OP(=O)(O)O)[C@H]1NC(=O)C[C@@H](CCCCCCCCCCC)OC(=O)CCCCCCCCC)OC(=O)CCCCCCCCC` [Compound 3, N—[(R)-3-Decanoyloxytetradecanoyl]-O-[2,3-di-[(R)-3-decanoyloxytetradecanoylamino]-2,3-dideoxy-4-O-phosphono-β-D-allopyranosyl]-L-serine methyl ester], for which the pEC50 was 10.14 in data set [1] (setting [8]); 10.80 in data set [1] (setting [9]); 9.80 in data set [1] (setting [10]); 10.38 in data set [1] (setting [11]); 10.32 in data set [2] (setting [15]); 10.50 in data set [2] (setting [16]). The pEC50 was 10.14 in data set [2] (setting [17]); 10.40 in data set [2] (setting [18]); 9.34 in data set [3]; 8.40 in data set [5] (Table 1a); 10.95 in data set [6].
With `CCCCCCCCCCC[C@H](CC(=O)NC1C(NC(=O)C[C@@H](CCCCCCCCCCC)OCCCCCCCCCC)[C@H](OP(=O)(O)O)C(CO)O[C@H]1OC[C@H](NC(=O)C[C@@H](CCCCCCCCCCC)OCCCCCCCCCC)C(=O)O)OCCCCCCCCCC` (stereo partly shown) [Compound 4], the pEC50 in data set [1] (setting [8]) was 11.08; in data set [1] (setting [9]) it was 11.08; in data set [1] (setting [10]), 11.09; in data set [1] (setting [11]) it was 11.08; in data set [1] (setting [12]) it was 10.73; in data set [1] (setting [13]), 10.83. Besides, the pEC50 was 10.66 in data set [1] (setting [14]); 11.31 in data set [2] (setting [15]); 11.23 in data set [2] (setting [16]); 11.57 in data set [2] (setting [17]); 11.21 in data set [2] (setting [18]); 10.86 in data set [2] (setting [19]). Also, the pEC50 in data set [2] (setting [20]) is 10.85; in data set [2] (setting [21]) it was 10.88; in data set [3] it was 9.91; in data set [5] (Table 1a) it was 8.88; in data set [5] (Table 1b), 8.86; in data set [6], 11.85. In addition, in data set [7], the “adjuvant effect on flu-specific IgG2a antibody titers compared to antigen alone” value is “dose dependent adjuvant effect”.
